Key:
11β-HSD1 Dehydrogenase = molecular target: T1, 11β-HSD1 Dehydrogenase (Rattus norvegicus, UniProt P16232); test: Inhibition of 11β-HSD1 dehydrogenase (Table 1); format: cell-based
T1 construct: an enzyme present in testicular Leydig cells; endogenous in cells; host or cells: freshly prepared rat Leydig cells

11β-HSD1 Reductase = molecular target: T2, 11β-HSD1 Reductase (Rattus norvegicus, UniProt P16232); test: Inhibition of 11β-HSD1 reductase (Table 1); format: cell-based
T2 construct: an enzyme present in testicular Leydig cells; endogenous in cells; host or cells: freshly prepared rat Leydig cells
T2 sequence (P16232 whole entry): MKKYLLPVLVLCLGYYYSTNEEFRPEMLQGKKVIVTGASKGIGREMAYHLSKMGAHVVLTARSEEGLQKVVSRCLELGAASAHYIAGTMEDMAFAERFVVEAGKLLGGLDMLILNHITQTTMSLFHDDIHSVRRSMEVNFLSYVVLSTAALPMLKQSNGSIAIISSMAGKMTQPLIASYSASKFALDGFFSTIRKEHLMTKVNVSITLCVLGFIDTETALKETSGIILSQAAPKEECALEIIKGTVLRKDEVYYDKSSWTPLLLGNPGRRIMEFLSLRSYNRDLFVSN

11β-HSD2 Dehydrogenase = molecular target: T3, 11β-HSD2 Dehydrogenase (Homo sapiens, UniProt P80365); test: Inhibition of 11β-HSD2 dehydrogenase (Table 1); format: biochemical
T3 sequence (P80365 1-405): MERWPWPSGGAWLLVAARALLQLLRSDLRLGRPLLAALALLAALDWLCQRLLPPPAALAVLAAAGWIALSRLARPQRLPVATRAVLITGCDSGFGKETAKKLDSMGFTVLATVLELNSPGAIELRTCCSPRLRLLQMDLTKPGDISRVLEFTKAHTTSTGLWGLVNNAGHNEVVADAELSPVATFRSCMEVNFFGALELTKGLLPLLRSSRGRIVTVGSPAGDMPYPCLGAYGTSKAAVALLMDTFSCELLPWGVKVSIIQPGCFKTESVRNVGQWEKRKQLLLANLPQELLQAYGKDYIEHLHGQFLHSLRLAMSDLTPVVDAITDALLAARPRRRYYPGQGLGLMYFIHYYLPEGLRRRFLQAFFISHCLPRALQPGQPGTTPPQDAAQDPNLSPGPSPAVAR

T1 sequence (P16232 whole entry): as the sequence (P16232 whole entry) above

SMILES	11β-HSD1 Dehydrogenase (inhibition) (11β-HSD1 Dehydrogenase)	11β-HSD1 Reductase (inhibition) (11β-HSD1 Reductase)	11β-HSD2 Dehydrogenase (inhibition) (11β-HSD2 Dehydrogenase)
C[C@]12CCC(=O)C=C1CC[C@@H]1[C@H]2C(=O)C[C@]2(C)C(=O)CC[C@H]12 (stereo in doubt) [11-Keto-androstenedione]	No Inhibition	Selective Inhibitor	No Inhibition
C[C@]12CC[C@@H]3[C@@H]([C@@H](O)C[C@]4(C=O)[C@@H](C(=O)CO)CC[C@H]34)[C@@]1(C)CC[C@H](O)C2 [3α,5α-reduced aldosterone]	Moderate Inhibitor	No Inhibition	Potent Inhibitor
C[C@]12CC[C@H](O)C[C@@H]1CC[C@@H]1[C@@H]2C(=O)C[C@]2(C)C(=O)CC[C@@H]12 [3α,5α-reduced-11-keto-androstenedione]	No Inhibition	Selective Inhibitor	–
CC(=O)[C@H]1CC[C@@H]2[C@@H]3CC[C@@H]4C[C@@H](O)CC[C@]4(C)[C@@H]3C(=O)C[C@]12C [3α,5α-reduced-11-keto-progesterone]	No Inhibition	Selective Inhibitor	Potent Inhibitor
C[C@]12CC[C@H](O)C[C@@H]1CC[C@H]1[C@@H]3CC[C@H](O)[C@@]3(C)CC(=O)[C@@H]12 [3α,5α-reduced-11-keto-testosterone]	No Inhibition	Selective Inhibitor	–
C[C@]12CC[C@H](O)C[C@H]1CC[C@@H]1[C@H]2[C@@H](O)C[C@]2(C)C(=O)CC[C@H]12 [3α,5α-reduced- 11β-OH—androstenedione]	Moderate Inhibitor	No Inhibition	Potent Inhibitor (Non-Selective)
CC(=O)[C@H]1CC[C@@H]2[C@@H]3CC[C@@H]4C[C@@H](O)CC[C@]4(C)[C@@H]3[C@@H](O)C[C@]12C [3α,5α-reduced- 11β-OH—progesterone]	Potent Inhibitor (Non-Selective)	No Inhibition	Potent Inhibitor (Non-Selective)
C[C@]12CC[C@H](O)C[C@H]1CC[C@@H]1[C@H]2[C@@H](O)C[C@@]2(C)[C@@H]1CC[C@@H]2O [3α,5α-reduced- 11β-OH—testosterone]	Potent Inhibitor (Non-Selective)	No Inhibition	Potent Inhibitor (Non-Selective)
C[C@]12CC[C@H](O)C[C@@H]1CC[C@@H]1[C@@H]2[C@@H](O)C[C@]2(C)[C@@H](C(=O)CO)CC[C@@H]12 [3α,5α-reduced- corticosterone]	Potent Inhibitor	No Inhibition	Potent Inhibitor
C[C@]12CC[C@H](O)C[C@@H]1CC[C@H]1[C@@H]3CC[C@H](C(=O)CO)[C@@]3(C)CC(=O)[C@@H]12 [3α,5α-tetrahydro-11-dehydro-corticosterone]	No Inhibition	Potent Inhibitor	Potent Inhibitor
CC(=O)[C@H]1CC[C@@H]2[C@@H]3CC[C@@H]4C[C@@H](O)CC[C@]4(C)[C@@H]3[C@@H](O)C[C@]12C [3α,5β-reduced- 11β-OH—progesterone]	Moderate Inhibitor	No Inhibition	No Inhibition
CC(=O)[C@H]1CC[C@@H]2[C@@H]3CCC4=CC(=O)CC[C@]4(C)[C@@H]3[C@@H](O)C[C@]12C [11β-OH—progesterone]	Potent Inhibitor (Non-Selective)	No Inhibition	–

Source: patent US20050020550A1, “Selective testicular 11beta-HSD inhibitors and methods of use thereof” (priority 2003, published 2005)
